One data set has as its system HIV-1. Put plainly: HIV-1 single-round infectious luciferase reporter virus (pseudotype) assay in HeLa CD4 CCR5 cells. In kind it is cell-based. The procedure, abridged: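 Reporter pseudovirus produced in 293 cells infected HeLa cells expressing CD4/CCR5 at MOI ~0.01, with compound present at <10 μM final. Infection was quantified as luciferase luminescence after 72 h.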

The next data set concerns HeLa cells. Put plainly: Cytotoxicity assay in HeLa cells (MTT dye reduction, CC50). The note with it: cytotoxicity; Yes = CC50 above 100 uM, No = not. The procedure, abridged: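 HeLa cells expressing CD4 and CCR5, grown in DMEM with 10% FBS, were used for cytotoxicity testing by MTT dye reduction; the text gives no further cytotoxicity conditions. The parallel antiviral assay exposed the same cells to compound at final <10 μM for 72 h.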
On the technique in general: Formazan colour is commonly taken as a measure of viable cells.

The nature of data set [1]: Metabolic stability in pooled human liver microsomes (HLM). The settings on record: pooled human liver microsomes, 3 μM drug; Low/Intermediate/High. The procedure, abridged: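 Pooled human liver microsomes (0.9 mg/ml final) in 0.1 M potassium phosphate pH 7.4 with 0.033 mM MgCl2 and an NADPH-regenerating system. Compound pre-incubated 2 min, reaction started with cofactors, run 10 min at 37° C, quenched in acetonitrile and analysed by LC/MS.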
(In general: Liver microsomes are a subcellular fraction often used to study metabolism.)

Data set [2] in a line: Rat IV and PO pharmacokinetic studies. The note with it: male, Sprague-Dawley, in vivo; for clearance: iv, 1 mg/kg, CL, iv dosing at 1 mg/kg; for AUC(0-t): po, 5 mg/kg, AUC 24 h, oral dosing at 5 mg/kg. The protocol:
Rat Pharmacokinetic Studies: For the IV and PO pharmacokinetic studies of compounds in rats, the compound was dissolved in PEG-400/ethanol (90/10) as a solution. Rat. Male Sprague-Dawley rats (300-350 g, Hilltop Lab Animals, Inc., Scottdale, Pa.) with cannulas implanted in the jugular vein were used. The rats were fasted overnight in the PO pharmacokinetic studies. Blood samples of 0.3 ml were collected from the jugular vein in EDTA-containing microtainer tubes (Becton Dickinson, Franklin Lakes, N. J.), and centrifuged to separate plasma. In the IV study, the test compound was delivered at 1 mg/kg as a bolus over 0.5 min (n=3). […] Quantitation of Compounds in Plasma. […] The resulting supernates were separated from the precipitated proteins by centrifugation for 10 minutes and transferred to autosampler vials. Samples were either prepared manually, or with the use of the Tomtec automated liquid handler. An aliquot of 5 μL was injected for analysis. The HPLC system consisted of two Shimadzu LC10AD pumps (Columbia, Md.), a Shimadzu SIL-HTC autosampler (Columbia, Md.), and a Hewlett Packard Series 1100 column compartment (Palo Alto, Calif.). The column was a YMC Pro C18 (2.0×50 mm, 3 μm particles, Waters Co., Milford, Mass.), maintained at 60° C. and a flow rate of 0.3 ml/min. The mobile phase consisted of 10 mM ammonium formate and 0.1% formic acid in water (A) and 100% 10 mM ammonium formate and 0.1% formic acid in methanol (B). […] The mobile phase was then returned to initial conditions and the column re-equilibrated for 1 minute. Total analysis time was 4 minutes. The HPLC was interfaced to a Micromass Quattro LC. Ultra high purity nitrogen was used as the nebulizing and desolvation gas at flow rates of 100 L/hr for nebulization and 1100 L/hr for desolvation. The desolvation temperature was 300° C. and the source temperature was 150° C. Data acquisition utilized selected reaction monitoring (SRM). Ions representing the (M+H)^+ species for the compound and the internal standard were selected in MS 1 and collisionally dissociated with argon at a pressure of 2×10^−3 torr to form specific product ions which were subsequently monitored by MS2.
For accuracy, the determined measure of viral inhibition is an EC50; but the minimum plasma concentrations which should be maintained in a patient is generally believed to be at least four or five fold higher. […] Lower is better. • 4) Estimating potential exposure in man by measuring parameters such as AUC and rate of clearance by oral and iv dosing in rats. High exposure and low clearance was desired.
The rat model is an initial model used to assess potential for exposure in man.

[3] abbreviates: Human immunodeficiency virus 1, HeLa-CD4/CCR5, read-out: EC50 Group from TABLE 1, HeLa CD4 CCR5 cells, single-round infectious luciferase reporter virus.
[4] abbreviates: Human immunodeficiency virus 1, HeLa-CD4/CCR5, read-out: EC50 category, HIV-1 single-round reporter virus assay, category 1/2/3 per Table A1 key.
Setting [5] is: Human immunodeficiency virus 1, HeLa-CD4/CCR5, read-out: EC50 Group from Table 1, Table 2-1, HeLa CD4 CCR5 cells, single-round luciferase reporter virus.
Setting [6] is: Human immunodeficiency virus 1, HeLa-CD4/CCR5, 72 h, read-out: EC50 Group from Table 1, HeLa CD4 CCR5 cells, luciferase reporter virus, harvested 72 h after infection.

Usually EC50 stands for the concentration needed to bring the measured effect to its halfway point. The term AUC(0-t) denotes exposure summed from dosing to a finite time, without extrapolation to infinity.

Read-outs that look alike come from different tables or passages of the source.

With `COc1cnc(-c2ncon2)c2[nH]cc(C(=O)C(=O)N3CCN(C(=O)c4ccccc4)CC3)c12` [Example 226], the 50% effective concentration (EC50) is below 1000 nM in the data set with HIV-1 (setting [3]) and below 0.2 nM in the data set with HIV-1 (setting [4]). The “CC50 > 100 uM” value with HeLa cells was “Yes”. Further, in data set [1], the “HLM predicted human clearance class” value is “Low (0-0.100)”. Further, in data set [2], the clearance was 24.5 ± 3 mL/min/kg. In addition, in data set [2], the area under the curve AUC(0-t) was found to be 0.5 ± 0.13 µg·h/mL.

Turning to `COc1cnc(-n2ccc(CO)n2)c2[nH]cc(C(=O)C(=O)N3CCN(C(=O)c4ccccc4)[C@H](C)C3)c12` [Example 236, (R)-1-benzoyl-2-methyl-4-[(4-methoxy-7-(3-hydroxylmethyl-pyrazol-1-yl)-6-azaindol-3-yl)-oxoacetyl]piperazine], in the data set with HIV-1 (setting [5]), the 50% effective concentration (EC50) was below 1000 nM. In the data set on HIV-1 (setting [4]), the EC50 was below 0.2 nM. In the data set with HeLa cells, the “CC50 > 100 uM” value is listed as “Yes”. In addition, the “HLM predicted human clearance class” value in data set [1] is “Low (0-0.100)”. In data set [2], the clearance was determined as 29 ± 6.7 mL/min/kg and the area under the curve AUC(0-t) worked out at 0.56 ± 0.25 µg·h/mL.

As to `COc1cnc(-n2cncn2)c2[nH]cc(C(=O)C(=O)N3CCN(C(=O)c4ccccc4)[C@H](C)C3)c12` [Example 245, (R)-1-benzoyl-2-methyl-4-[(4-methoxy-7-(1,2,4-triazol-1-yl)-6-azaindol-3-yl)-oxoacetyl]piperazine], the concentration giving a half-maximal response (EC50) in the data set with HIV-1 (setting [5]) is below 1000 nM. Also, in the data set on HIV-1 (setting [4]), the EC50 is below 0.2 nM. In addition, the “CC50 > 100 uM” value in the data set with HeLa cells is “Yes”. Moreover, the “HLM predicted human clearance class” value in data set [1] is “Low (0-0.100)”. In data set [2], this compound returned a clearance of 5.6 ± 1.8 mL/min/kg and an area under the curve AUC(0-t) of 12.1 ± 1.3 µg·h/mL.

With `COc1cnc(-c2cnc(N)cn2)c2[nH]cc(C(=O)C(=O)N3CCN(C(=O)c4ccccc4)[C@H](C)C3)c12` [Example 266], the EC50 with HIV-1 (setting [5]) was below 1000 nM. Moreover, the EC50 with HIV-1 (setting [4]) is below 0.2 nM. The “CC50 > 100 uM” value with HeLa cells is reported as “Yes”. In addition, the “HLM predicted human clearance class” value in data set [1] is given as “Low (0-0.100)”. In data set [2], this compound registered a clearance of 37.4 ± 3.2 mL/min/kg and an area under the curve AUC(0-t) of 0.16 ± 0.04 µg·h/mL.

In the case of `Nc1ccn(-c2ncc(F)c3c(C(=O)C(=O)N4CCN(C(=O)c5ccccc5)CC4)c[nH]c23)n1` [Example 309], the EC50 with HIV-1 (setting [3]) was below 1000 nM. In the data set with HIV-1 (setting [4]), the EC50 is below 0.2 nM. Further, the “CC50 > 100 uM” value with HeLa cells is given as “Yes”. In addition, in data set [1], the “HLM predicted human clearance class” value is listed as “Low (0-0.100)”. Moreover, in data set [2], the clearance amounted to 34.3 ± 2.6 mL/min/kg and the exposure AUC(0-t) is 0.09 ± 0.05 µg·h/mL.

Regarding `Cc1ccn(-c2ncc(F)c3c(C(=O)C(=O)N4CCN(C(=O)c5ccccc5)CC4)c[nH]c23)n1` [Example 310], the EC50 was below 1000 nM with HIV-1 (setting [3]) and below 0.2 nM in the data set with HIV-1 (setting [4]). Moreover, the “CC50 > 100 uM” value in the data set with HeLa cells is “Yes”. Moreover, the “HLM predicted human clearance class” value in data set [1] was “Low (0-0.100)”. Moreover, the clearance in data set [2] worked out at 16.5 ± 3.3 mL/min/kg. This compound came in with an AUC(0-t) in data set [2] of 2.1 ± 0.4 µg·h/mL.

As for `COc1cnc(-n2cnc(C)n2)c2[nH]cc(C(=O)C(=O)N3CCN(C(=O)c4ccccc4)[C@H](C)C3)c12` [Example 317], the concentration for a half-maximal effect (EC50) in the data set with HIV-1 (setting [5]) is below 1000 nM. Further, the concentration giving a half-maximal response (EC50) in the data set on HIV-1 (setting [4]) is below 0.2 nM. In addition, the “CC50 > 100 uM” value with HeLa cells is listed as “Yes”. Besides, the “HLM predicted human clearance class” value in data set [1] is recorded as “Low (0-0.100)”. Also, in data set [2], the clearance was determined as 1.9 ± 0.26 mL/min/kg and the area under the curve AUC(0-t) came to 43 ± 12 µg·h/mL.

Consider `CCc1ncn(-c2ncc(OC)c3c(C(=O)C(=O)N4CCN(C(=O)c5ccccc5)[C@H](C)C4)c[nH]c23)n1` [Example 322], for which, in the data set on HIV-1 (setting [5]), the EC50 is below 1000 nM. Moreover, the EC50 with HIV-1 (setting [4]) was below 0.2 nM. The “CC50 > 100 uM” value in the data set on HeLa cells was “Yes”. Also, the “HLM predicted human clearance class” value in data set [1] was “Low (0-0.100)”. For the same compound, in data set [2], the clearance was determined as 1.8 ± 0.4 mL/min/kg and the AUC(0-t) was 82 ± 23 µg·h/mL.

For `COc1cnc(-n2cc(C)nn2)c2[nH]cc(C(=O)C(=O)N3CCN(C(=O)c4ccccc4)[C@H](C)C3)c12` [Example 326], the EC50 with HIV-1 (setting [5]) was below 1000 nM. For the same compound, the EC50 with HIV-1 (setting [4]) is below 0.2 nM. Moreover, the “CC50 > 100 uM” value in the data set on HeLa cells is reported as “Yes”. Also, in data set [1], the “HLM predicted human clearance class” value was “Low (0-0.100)”. In data set [2], the clearance worked out at 8.3 mL/min/kg and the AUC(0-t) was found to be 9.8 ± 2.9 µg·h/mL.

On to `C[C@@H]1CN(C(=O)C(=O)c2c[nH]c3c(-c4ncco4)ccnc23)CCN1C(=O)c1ccccc1` [Example 353], for which the EC50 in the data set with HIV-1 (setting [6]) was below 1000 nM. In addition, the half-maximal effective concentration (EC50) with HIV-1 (setting [4]) lay in the range of 0.2 to 1000 nM. In addition, in the data set with HeLa cells, the “CC50 > 100 uM” value is listed as “Yes”. For the same compound, in data set [1], the “HLM predicted human clearance class” value is on record as “Low (0-0.100)”. Moreover, in data set [2], the clearance amounted to 5.6 ± 1.1 mL/min/kg and the exposure AUC(0-t) is 1360 ± 307 µg·h/mL.

`C[C@@H]1CN(C(=O)C(=O)c2c[nH]c3c(-c4nccs4)ccnc23)CCN1C(=O)c1ccccc1` [Example 354]: the EC50 in the data set with HIV-1 (setting [6]) is below 1000 nM. In addition, in the data set on HIV-1 (setting [4]), the EC50 was 0.2 to 1000 nM. Also, the “CC50 > 100 uM” value in the data set with HeLa cells is “Yes”. Also, the “HLM predicted human clearance class” value in data set [1] is “Low (0-0.100)”. In data set [2], the clearance came to 11.2 ± 0.8 mL/min/kg and the AUC(0-t) was 1.26 µg·h/mL.

On to `C[C@@H]1CN(C(=O)C(=O)c2c[nH]c3c(-n4nccn4)ccnc23)CCN1C(=O)c1ccccc1` [Example 355], for which the concentration for a half-maximal effect (EC50) in the data set with HIV-1 (setting [6]) was below 1000 nM. The EC50 in the data set with HIV-1 (setting [4]) is 0.2 to 1000 nM. In the data set with HeLa cells, the “CC50 > 100 uM” value was “Yes”. Moreover, the “HLM predicted human clearance class” value in data set [1] is listed as “Low (0-0.100)”. Besides, in data set [2], the clearance was 13.9 ± 5.3 mL/min/kg and the AUC(0-t) was 3.3 ± 0.77 µg·h/mL.

These data come from patent US20050090522A1 (priority 2001, published 2005).
